Reference: patent publication US6579469B1, “Cyanoacrylate solutions containing preservatives” (priority 1999, dated 2003)

Assay: Compatibility of antimicrobial agent with sterilization procedures
Type: physicochemical
Conditions: comparison of Tables II and III
Description: Optionally, in embodiments of the present invention, the potential agent can be tested for its compatibility with one or more sterilization procedures. This optional screening procedure can also be performed by mixing an appropriate amount of the agent with a desired amount of the monomer composition and any other desired additives, and then subjecting the resultant composition to one or more sterilization procedures. Compatibility of the agent with one or more sterilization procedures is preferred in embodiments of the present invention because many uses of the polymerizable monomer compositions, such as many medical applications, require or prefer sterilized products. Following sterilization, the agent can exert antimicrobial action in killing or preventing growth of microbes that may be introduced into the pre-sterilized monomer compositions.

Cc1ccc(C(C)C)c(O)c1 [thymol]
Compatibility with forms of sterilization: more compatible with one form of sterilization than it is with another form of sterilization
